Values of other authors in patent US9456994B2, “Efficient process for the preparation of lycopene containing oleoresin and lycopene crystals for human consumption” (OMNIACTIVE HEALTH TECHNOLOGIES LIMITED, priority 2011, dated 2016).

Tests used:
[1] = organic solvents

lycopene lost (heated at 100 degree C in the presence of carbon dioxide): 5%
lycopene degraded (heated at 100 degree C in the presence of oxygen): More than 30%
SMILES: CC(C)=CCC/C(C)=C/C=C/C(C)=C/C=C/C(C)=C/C=C/C=C(C)/C=C/C=C(C)/C=C/C=C(\C)CCC=C(C)C [lycopene, Lycopene]
solubility [1]: soluble in chloroform, hexane, benzene, carbon disulphide, acetone, petroleum ether
